Data from ChEMBL document CHEMBL5625212, “De novo designed self-assembling helicomimetic lipooligoureas with antibacterial activity” (Eur J Med Chem, 2023).
In brackets after ≈: the same amount, converted by molar mass.

Columns and labels:
[1] = tested on: Staphylococcus epidermidis; test: Antibacterial activity against Staphylococcus epidermidis ATCC 12228 assessed as reduction in bacterial growth measured after 24 hrs by spectrophotometer based analysis; format: functional
Staphylococcus aureus [2] = test: Antibacterial activity against methicillin resistant Staphylococcus aureus 4811/13 assessed as reduction in bacterial growth measured after 24 hrs by spectrophotometer based analysis; format: functional
Staphylococcus aureus [3] = test: Antibacterial activity against methicillin resistant Staphylococcus aureus 5288/13 assessed as reduction in bacterial growth measured after 24 hrs by spectrophotometer based analysis; format: functional
Enterococcus faecalis = test: Antibacterial activity against Enterococcus faecalis ATCC 14506 assessed as reduction in bacterial growth measured after 24 hrs by spectrophotometer based analysis; format: functional
Staphylococcus aureus [4] = test: Antibacterial activity against Staphylococcus aureus ATCC 29213 assessed as reduction in bacterial growth measured after 24 hrs by spectrophotometer based analysis; format: functional
Staphylococcus aureus [5] = test: Antibacterial activity against methicillin resistant Staphylococcus aureus 401/5 assessed as reduction in bacterial growth measured after 24 hrs by spectrophotometer based analysis; format: functional
[6] = Proteolytic stability of the compound in human serum assessed as drug degradation measured after 96 hrs by RP-HPLC analysis; format: ADME, cell-free; settings: read-out: Drug degradation
[7] = Aggregation property of compound in PBS assessed as critical aggregation concentration; format: physicochemical; settings: buffer
Klebsiella pneumoniae = test: Antibacterial activity against Klebsiella pneumoniae PCM 1 assessed as reduction in bacterial growth measured after 24 hrs by spectrophotometer based analysis; format: functional
Yersinia enterocolitica = test: Antibacterial activity against Yersinia enterocolitica PCM 2081 assessed as reduction in bacterial growth measured after 24 hrs by spectrophotometer based analysis; format: functional
[8] = Proteolytic stability of the compound in human serum assessed as drug degradation measured after 24 hrs by RP-HPLC analysis; format: ADME, cell-free; settings: read-out: Drug degradation
Salmonella typhimurium = test: Antibacterial activity against Salmonella enterica subsp. enterica serovar Typhimurium TT622 assessed as reduction in bacterial growth measured after 24 hrs by spectrophotometer based analysis; format: functional
Escherichia coli = test: Antibacterial activity against Escherichia coli ST2-8624 O157 H7 assessed as reduction in bacterial growth measured after 24 hrs by spectrophotometer based analysis; format: functional
Pseudomonas aeruginosa = test: Antibacterial activity against Pseudomonas aeruginosa PA01 PCM 499 assessed as reduction in bacterial growth measured after 24 hrs by spectrophotometer based analysis; format: functional
[9] = Proteolytic stability of the compound in human serum assessed as drug degradation measured within 4 hrs by RP-HPLC analysis; format: ADME, cell-free

| Structure (SMILES) | MIC [1] | MIC (Staphylococcus aureus [2]) | MIC (Staphylococcus aureus [3]) | MIC (Enterococcus faecalis) | MIC (Staphylococcus aureus [4]) | MIC (Staphylococcus aureus [5]) | metabolised at 96 h [6] | CAC [7] | MIC (Klebsiella pneumoniae) | MIC (Yersinia enterocolitica) | metabolised at 24 h [8] | MIC (Salmonella typhimurium) | MIC (Escherichia coli) | MIC (Pseudomonas aeruginosa) | Stability [9] |
| --- | --- | --- | --- | --- | --- | --- | --- | --- | --- | --- | --- | --- | --- | --- | --- |
| CCCCCCCCCC(=O)N[C@@H](Cc1c[nH]c2ccccc12)C(=O)N[C@H](CC(N)=O)C(=O)N[C@@H](CC(=O)O)C(=O)N[C@@H]1C(=O)NCC(=O)N[C@@H](CCCN)C(=O)N[C@@H](CC(=O)O)C(=O)N[C@H](C)C(=O)N[C@@H](CC(=O)O)C(=O)NCC(=O)N[C@H](CO)C(=O)N[C@@H]([C@H](C)CC(=O)O)C(=O)N[C@@H](CC(=O)c2ccccc2N)C(=O)O[C@@H]1C | 1 µg/mL (≈ 0.617 µM) | 2 µg/mL (≈ 1.23 µM) | 2 µg/mL (≈ 1.23 µM) | 3.5 µg/mL (≈ 2.16 µM) | 2 µg/mL (≈ 1.23 µM) | 1.5 µg/mL (≈ 0.926 µM) |  |  |  |  |  |  |  |  |  |
| CCCCCCCCCC(=O)N[C@H](CNC(=O)N[C@@H](CCCCN)CNC(=O)N[C@@H](CCCCN)CN[C@H](CNC(=O)N[C@@H](CCCCN)CNC(N)=O)CC(C)C)Cc1ccccc1 | 30 µg/mL (≈ 32.7 µM) | 30 µg/mL (≈ 32.7 µM) | 40 µg/mL (≈ 43.6 µM) |  | 30 µg/mL (≈ 32.7 µM) | 30 µg/mL (≈ 32.7 µM) | 15% | 79 µM |  |  |  |  |  |  |  |
| CCCCCCCCCC(=O)N[C@H](CNC(=O)N[C@@H](CCN)CNC(=O)N[C@H](CN[C@H](CNC(=O)N[C@@H](CCN)CNC(N)=O)CC(C)C)CC(C)C)Cc1ccccc1 | 5 µg/mL (≈ 5.9 µM) | 5 µg/mL (≈ 5.9 µM) | 5 µg/mL (≈ 5.9 µM) | 5 µg/mL (≈ 5.9 µM) | 5 µg/mL (≈ 5.9 µM) | 5 µg/mL (≈ 5.9 µM) | 8% | 40 µM | 20 µg/mL (≈ 23.6 µM) | 10 µg/mL (≈ 11.8 µM) | 4% | 20 µg/mL (≈ 23.6 µM) | 10 µg/mL (≈ 11.8 µM) | 10 µg/mL (≈ 11.8 µM) |  |
| CCCCCCCCCC(=O)N[C@H](CNC(=O)N[C@@H](CCN)CNC(=O)N[C@@H](CCN)CN[C@H](CNC(=O)N[C@@H](CCN)CNC(N)=O)CC(C)C)Cc1ccccc1 | 20 µg/mL (≈ 24 µM) | 30 µg/mL (≈ 36 µM) | 30 µg/mL (≈ 36 µM) | 40 µg/mL (≈ 48 µM) | 20 µg/mL (≈ 24 µM) | 20 µg/mL (≈ 24 µM) | 8% | 87 µM |  |  |  |  |  |  |  |
| CCCCCCCCCC(=O)N[C@H](CNC(=O)N[C@@H](CCN)CNC(=O)N[C@@H](CCN)CN[C@H](CNC(=O)N[C@H](CNC(N)=O)CC(C)C)CC(C)C)Cc1ccccc1 | 10 µg/mL (≈ 11.8 µM) | 10 µg/mL (≈ 11.8 µM) | 10 µg/mL (≈ 11.8 µM) | 20 µg/mL (≈ 23.6 µM) | 10 µg/mL (≈ 11.8 µM) | 10 µg/mL (≈ 11.8 µM) | 8% | 56 µM | 30 µg/mL (≈ 35.4 µM) | 30 µg/mL (≈ 35.4 µM) |  | 30 µg/mL (≈ 35.4 µM) | 30 µg/mL (≈ 35.4 µM) | 30 µg/mL (≈ 35.4 µM) |  |
| NC(=O)[C@H](Cc1ccccc1)NC(=O)[C@H](Cc1ccccc1)NC(=O)[C@@H]1CCCN1C(=O)[C@@H](N)Cc1ccc(O)cc1 [ENDOMORPHIN 2] |  |  |  |  |  |  |  |  |  |  |  |  |  |  | Unstable |
